For one test, the target named is T1, human Fatty Acid Synthase (Homo sapiens, UniProt P49327).
T1 construct: made in house
T1 sequence (P49327 whole entry): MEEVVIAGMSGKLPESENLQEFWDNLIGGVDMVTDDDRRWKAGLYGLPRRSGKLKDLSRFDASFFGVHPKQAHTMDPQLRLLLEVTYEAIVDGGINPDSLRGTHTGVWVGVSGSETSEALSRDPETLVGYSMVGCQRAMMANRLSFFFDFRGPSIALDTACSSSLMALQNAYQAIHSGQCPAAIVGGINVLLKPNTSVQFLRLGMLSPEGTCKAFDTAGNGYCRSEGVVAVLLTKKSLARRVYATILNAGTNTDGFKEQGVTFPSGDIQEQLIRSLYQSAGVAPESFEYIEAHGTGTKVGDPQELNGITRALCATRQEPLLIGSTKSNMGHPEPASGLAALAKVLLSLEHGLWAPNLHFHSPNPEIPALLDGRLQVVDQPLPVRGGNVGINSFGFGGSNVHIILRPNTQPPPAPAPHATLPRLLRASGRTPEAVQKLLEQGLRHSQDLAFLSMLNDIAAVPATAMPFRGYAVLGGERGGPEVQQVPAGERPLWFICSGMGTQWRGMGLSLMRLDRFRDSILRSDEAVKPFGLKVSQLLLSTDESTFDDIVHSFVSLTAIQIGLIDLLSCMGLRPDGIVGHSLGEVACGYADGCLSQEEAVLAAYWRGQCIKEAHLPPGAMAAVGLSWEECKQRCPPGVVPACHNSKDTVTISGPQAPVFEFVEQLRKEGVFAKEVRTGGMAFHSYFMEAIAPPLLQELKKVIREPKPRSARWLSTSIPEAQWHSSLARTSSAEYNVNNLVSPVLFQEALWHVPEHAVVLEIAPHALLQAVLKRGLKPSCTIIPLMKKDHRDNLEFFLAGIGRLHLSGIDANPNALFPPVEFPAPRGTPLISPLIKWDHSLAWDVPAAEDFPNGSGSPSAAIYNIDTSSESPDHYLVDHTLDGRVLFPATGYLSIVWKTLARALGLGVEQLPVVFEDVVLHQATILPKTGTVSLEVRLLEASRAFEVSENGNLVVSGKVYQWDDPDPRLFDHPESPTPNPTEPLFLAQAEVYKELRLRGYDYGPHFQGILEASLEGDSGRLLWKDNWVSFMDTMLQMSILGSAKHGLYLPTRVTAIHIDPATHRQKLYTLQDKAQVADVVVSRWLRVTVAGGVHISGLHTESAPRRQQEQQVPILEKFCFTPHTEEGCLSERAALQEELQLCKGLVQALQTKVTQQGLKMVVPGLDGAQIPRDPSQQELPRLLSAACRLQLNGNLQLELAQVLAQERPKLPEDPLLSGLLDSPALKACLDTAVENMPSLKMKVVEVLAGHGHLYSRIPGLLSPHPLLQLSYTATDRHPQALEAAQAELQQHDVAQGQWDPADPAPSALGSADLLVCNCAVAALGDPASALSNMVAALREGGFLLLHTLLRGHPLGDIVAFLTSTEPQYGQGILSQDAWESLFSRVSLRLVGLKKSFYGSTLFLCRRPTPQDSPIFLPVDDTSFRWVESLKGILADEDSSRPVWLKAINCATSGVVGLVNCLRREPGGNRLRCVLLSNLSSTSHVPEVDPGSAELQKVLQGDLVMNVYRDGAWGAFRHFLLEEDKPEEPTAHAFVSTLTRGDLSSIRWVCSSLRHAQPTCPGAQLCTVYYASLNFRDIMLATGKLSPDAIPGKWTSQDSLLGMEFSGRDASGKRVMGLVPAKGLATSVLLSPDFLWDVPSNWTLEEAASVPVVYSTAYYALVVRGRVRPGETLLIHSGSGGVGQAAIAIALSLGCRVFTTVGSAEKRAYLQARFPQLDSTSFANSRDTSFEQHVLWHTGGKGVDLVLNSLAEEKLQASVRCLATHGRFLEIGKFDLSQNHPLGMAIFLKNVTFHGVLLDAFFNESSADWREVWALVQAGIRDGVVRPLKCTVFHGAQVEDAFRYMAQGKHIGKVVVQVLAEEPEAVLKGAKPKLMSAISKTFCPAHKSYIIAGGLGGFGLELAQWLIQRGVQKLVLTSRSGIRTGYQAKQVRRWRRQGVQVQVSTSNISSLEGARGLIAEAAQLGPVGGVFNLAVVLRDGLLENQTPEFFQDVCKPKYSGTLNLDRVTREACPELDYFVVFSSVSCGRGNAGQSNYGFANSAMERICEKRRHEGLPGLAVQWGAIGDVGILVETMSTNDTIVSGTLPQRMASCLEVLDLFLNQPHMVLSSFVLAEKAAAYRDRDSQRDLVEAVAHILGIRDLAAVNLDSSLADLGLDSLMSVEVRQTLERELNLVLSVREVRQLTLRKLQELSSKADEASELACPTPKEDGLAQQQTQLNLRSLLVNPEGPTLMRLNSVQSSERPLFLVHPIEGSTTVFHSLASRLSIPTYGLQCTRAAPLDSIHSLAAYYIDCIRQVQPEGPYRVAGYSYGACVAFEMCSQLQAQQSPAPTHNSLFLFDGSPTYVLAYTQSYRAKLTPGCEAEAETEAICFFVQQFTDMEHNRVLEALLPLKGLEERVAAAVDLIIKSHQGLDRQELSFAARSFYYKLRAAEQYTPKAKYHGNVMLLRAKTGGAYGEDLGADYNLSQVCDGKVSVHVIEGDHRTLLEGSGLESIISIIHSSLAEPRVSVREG
As to the kind of experiment: Human FAS enzyme assay (decrease in NADPH fluorescence). The class given is biochemical. As to conditions: % inhibition at a concentration of 100 μmolar. In a few lines: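 In-house human FAS was preincubated with compound and NADPH for 15 min at room temperature in 0.1 M Tris pH 7.5 with EDTA, glutathione and BSA. Malonyl CoA and acetyl CoA (500 μM and 150 μM in the added mix) were then added for 60 min. IC50 came from time-zero-subtracted NADPH fluorescence (340/460 nm).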
Usually inhibition stands for the drop in the measured response relative to a control, in per cent. On to `Cc1ccc(C(=O)N2CCC(c3ccc(C#N)cc3)CC2)cc1NC(=O)NCCc1c(C)noc1C` [Example 67, 1-[5-[4-(4-cyanophenyl)piperidine-1-carbonyl]-2-methyl-phenyl]-3-[2-(3,5-dimethyl-1,2-oxazol-4-yl)ethyl]urea], for which the inhibition at 100 µM stood at 96.9%.

With `Cc1ccc(C(=O)N2CCC(c3ccc(C(F)(F)F)cc3)CC2)cc1NC(=O)NC1CCCNC1` (stereo not drawn) [Example 337, 1-[2-methyl-5-[4-[4-(trifluoromethyl)phenyl]piperidine-1-carbonyl]phenyl]-3-(3-piperidyl)urea], the inhibition at 100 µM amounted to 90.1%.

In the case of `Cc1ccc(C(=O)N2CCC(c3ccc(C#N)cc3)CC2)cc1NC(=O)N[C@@H](CO)C(N)=O` [Example 192, (2S)-2-[[5-[4-(4-cyanophenyl)piperidine-1-carbonyl]-2-methyl-phenyl]carbamoylamino]-3-hydroxy-propanamide], the inhibition at 100 µM was 85.1%.

For the compound `Cc1ccc(C(=O)N2CCC(c3ccc(C#N)cc3)CC2)cc1NC(=O)NC[C@@H](NC(=O)OC(C)(C)C)C(=O)O` [Example 370, (2R)-3-[[5-[4-(4-cyanophenyl)piperidine-1-carbonyl]-2-methylphenyl]carbamoylamino]-2-[(2-methylpropan-2-yl)oxycarbonylamino]propanoic acid], the inhibition at 100 µM stood at 106%.

Consider `Cc1ccc(C(=O)N2CCC(c3ccc(C#N)cc3)CC2)cc1NC(=O)NCCC(=O)O` [Example 125, 3-[[5-[4-(4-cyanophenyl)piperidine-1-carbonyl]-2-methyl-phenyl]carbamoylamino]propanoic acid], for which the inhibition at 100 µM is 91.7%.

Take `CC(C)NC(=O)Nc1cc(C(=O)N2CCC(c3ccc(C#N)cc3)CC2)ccc1C#N` [Example 22, 3-[2-cyano-5-[4-(4-cyanophenyl)piperidine-1-carbonyl]phenyl]-1-propan-2-yl-urea]: the inhibition at 100 µM stood at 86.8%.

As for `Cc1ccc(C(=O)N2CCC(c3ccc(C#N)cc3)CC2)cc1NC(=O)N1CCN(C(=O)C(C)C)CC1` [Example 331, N-[5-[4-(4-cyanophenyl)piperidine-1-carbonyl]-2-methyl-phenyl]-4-(2-methylpropanoyl)piperazine-1-carboxamide], the inhibition at 100 µM is 84.2%.

`COc1ccccc1CCNC(=O)Nc1cc(C(=O)N2CCC(c3ccc(C#N)cc3)CC2)ccc1C` [Example 61, 1-[5-[4-(4-cyanophenyl)piperidine-1-carbonyl]-2-methyl-phenyl]-3-[2-(2-methoxyphenyl)ethyl]urea]: the inhibition at 100 µM is 84.8%.

For the compound `COCC(C)NC(=O)Nc1cc(C(=O)N2CCC(c3ccc(C#N)cc3)CC2)ccc1C` (stereo not drawn) [Example 155, 1-[5-[4-(4-cyanophenyl)piperidine-1-carbonyl]-2-methyl-phenyl]-3-(1-methoxypropan-2-yl)urea], the inhibition at 100 µM was determined as 90.1%.

As to `Cc1cc(C)c(C(=O)N2CCC(c3ccc(C#N)cc3)CC2)cc1NC(=O)NC1CC1` [Example 411, 1-[5-[4-(4-cyanophenyl)piperidine-1-carbonyl]-2,4-dimethylphenyl]-3-cyclopropylurea], the inhibition at 100 µM was determined as 90%.

In the case of `Cc1ccc(C(=O)N2CCC(c3ccc(C#N)cc3)CC2)cc1NC(=O)NC1CCN(S(C)(=O)=O)CC1` [Example 281, 1-[5-[4-(4-cyanophenyl)piperidine-1-carbonyl]-2-methyl-phenyl]-3-(1-methylsulfonyl-4-piperidyl)urea], the inhibition at 100 µM was found to be 99.7%.

For the compound `Cc1ccc(C(=O)N2CCC(c3ccc(C#N)cc3)CC2)cc1NC(=O)NCc1cnn(C)c1` [Example 356, 1-[5-[4-(4-cyanophenyl)piperidine-1-carbonyl]-2-methyl-phenyl]-3-[(1-methylpyrazol-4-yl)methyl]urea], the inhibition at 100 µM was 92.4%.

Turning to `Cc1ccc(C(=O)N2CCC(c3ccc(C#N)cc3)CC2)cc1NC(=O)N[C@@H]1CCNC1` [Example 212, 1-[5-[4-(4-cyanophenyl)piperidine-1-carbonyl]-2-methyl-phenyl]-3-[(3R)-pyrrolidin-3-yl]urea], the inhibition at 100 µM was found to be 97%.

Consider `Cc1ccc(C(=O)N2CCC(c3ccc(C#N)cc3)CC2)cc1NC(=O)NCC(=O)NC(C)C` [Example 171, 2-[[5-[4-(4-cyanophenyl)piperidine-1-carbonyl]-2-methyl-phenyl]carbamoylamino]-N-propan-2-yl-acetamide], for which the inhibition at 100 µM turned out to be 96.3%.

Regarding `Cc1ccc(C(=O)N2CCC(c3ccc(C#N)cc3)CC2)cc1NC(=O)NCCCCN(C)C` [Example 142, 1-[5-[4-(4-cyanophenyl)piperidine-1-carbonyl]-2-methyl-phenyl]-3-(4-dimethylaminobutyl)urea], the inhibition at 100 µM came out at 80.3%.

As to `Cc1ccc(C(=O)N2CCC(c3cccc(C#N)c3)CC2)cc1NC(=O)NC(C)C` [Example 327, 1-[5-[4-(3-cyanophenyl)piperidine-1-carbonyl]-2-methyl-phenyl]-3-propan-2-yl-urea], the inhibition at 100 µM stood at 93.1%.

As for `CSc1ccc(C(=O)N2CCC(c3ccc(C#N)cc3)CC2)cc1NC(=O)NCc1ccccc1` [Example 363, 3-benzyl-1-[5-[4-(4-cyanophenyl)piperidine-1-carbonyl]-2-methylsulfanylphenyl]urea], the inhibition at 100 µM turned out to be 84.7%.

For the compound `Cc1ccc(C(=O)N2CCC(c3ccc(C#N)cc3)CC2)cc1NC(=O)NCCC(=O)N(C)C` [Example 130, 3-[[5-[4-(4-cyanophenyl)piperidine-1-carbonyl]-2-methyl-phenyl]carbamoylamino]-N,N-dimethyl-propanamide], the inhibition at 100 µM is 90.5%.

For the compound `CCNC(=O)Nc1ccc(C)c(C(=O)N2CCC(c3ccc(C#N)cc3)CC2)c1` [Example 19, 3-[3-[4-(4-cyanophenyl)piperidine-1-carbonyl]-4-methyl-phenyl]-1-ethyl-urea], the inhibition at 100 µM was determined as 79.9%.

Regarding `N#Cc1ccc(C2CCN(C(=O)c3cccc(NC(=O)NCc4ccccc4)c3)CC2)cc1` [Example 14, 1-benzyl-3-[3-[4-(4-cyanophenyl)piperidine-1-carbonyl]phenyl]urea], the inhibition at 100 µM was determined as 90.1%.

On to `Cc1ccc(C(=O)N2CCC(c3ccc(C#N)cc3)CC2)cc1NC(=O)NCC1CCOCC1` [Example 17, 1-[5-[4-(4-cyanophenyl)piperidine-1-carbonyl]-2-methyl-phenyl]-3-(oxan-4-ylmethyl)urea], for which the inhibition at 100 µM came out at 90.1%.

As for `Cc1ccc(C(=O)N2CCC(c3ccc(C#N)cc3)CC2)cc1NC(=O)NC1CCCNC1=O` (racemic) [Example 236, (RS)-1-[5-[4-(4-cyanophenyl)piperidine-1-carbonyl]-2-methyl-phenyl]-3-(2-oxo-3-piperidyl)urea], the inhibition at 100 µM worked out at 77.1%.

Regarding `CC(=O)N1CCC(NC(=O)Nc2cc(C(=O)N3CCC(c4ccc(F)cc4)CC3)ccc2C)C1` (stereo not drawn) [Example 348, 3-(1-acetylpyrrolidin-3-yl)-1-[5-[4-(4-fluorophenyl)piperidine-1-carbonyl]-2-methyl-phenyl]urea], the inhibition at 100 µM stood at 84.5%.

The test is the same for the next values; noted with them: FAS enzyme assay, IC50 from fitted sigmoid curves.
Regarding `CC(C)NC(=O)Nc1ccc([S+](C)[O-])c(C(=O)N2CCC(c3ccc(C#N)cc3)CC2)c1` (stereo not drawn) [3-[3-[4-(4-cyanophenyl)piperidine-1-carbonyl]-4-methylsulfinylphenyl]-1-propan-2-ylurea], the “IC50, inhibition of human Fatty Acid Synthase” value is given as “do not have IC50s in the range of about 0.001 μM to about 30 μM”.

The record behind these values is patent US20090118332A1, “Therapeutic Agents - 551” (AstraZeneca AB, priority 2006, published 2009).
